What all share (assay type): physicochemical
Data set [1] in a line: Aqueous solubility of ibuprofen. The conditions noted are these: pH 2, in 50 ml.
Data set [2] can be described thus: pKa / ionization of ibuprofen. Conditions: pH of 2.
Data set [3] in a line: Dissolution of ibuprofen in 0.01N HCl, microdialysis sampling and HPLC (Example 3). The conditions noted are these: 50 ml 0.01N HCl pH 2, 25° C. Here is the method: The remaining ether was removed by evaporation at room temperature in a vacuum oven at less than 10 torr, for 2 hours.

For `CC(C)Cc1ccc(C(C)C(=O)O)cc1` (centres unmarked) [pure ibuprofen, ibuprofen], the “amount dissolved corresponding to solubility” value in data set [1] was determined as 4000 µg. Besides, in data set [2], the fraction unionized entry is recorded as “more than 99%”. In addition, the “amount of ibuprofen dissolved” value is reported as “approximately 790 mcg” in data set [3] (after five minutes), “approximately 190 mcg” in data set [3] (after one minute) and “approximately 350 mcg” in data set [3] (after two minutes).

For the origin of these results see patent publication US20090130212A1, “COMPOSITION AND IMPROVED METHOD FOR PREPARATION OF SMALL PARTICLES” (PHYSICAL PHARMACEUTICA, LLC, priority 2006, published 2009).
